# Results as given in paper PMC7663799, “Endocytosis and Trafficking of Heparan Sulfate Proteoglycans in Triple-Negative Breast Cancer Cells Unraveled with a Polycationic Peptide” (International Journal of Molecular Sciences, 2020).
# Experiments:
# [1] = system: NT4 internalization in MDA-MB-231 cells; experiment: Inhibition of NT4 internalization by pharmacological agents, confocal microscopy; assay type: cell-based, human; settings: for reduction of NT4 internalization: ±13%
# Protocol: (§1) MDA-MB-231 cells were plated at a density of 5 × 10^4 per well in 24-well plates with glass cover slides and maintained overnight at 37 °C, 5% CO2.
# Cells were pretreated for 15 min with 1–10 μg/mL Chlorpromazine (Merck, Darmstadt, Germany), 25 μg/mL Nystatin (Merck), 80 μM Dynasore (Merck) and 50 µM Amiloride (Merck) at 37 °C and then incubated with 2 μM NT4-biotin and 0.5 μg/mL Streptavidin-Atto 488 in PBS-1% BSA at room temperature for 15 min. To study macropinocytosis in the presence of Amiloride, 5 mg/mL Rhodamine B isothiocyanate–Dextran in PBS-1% BSA (Merck) was incubated at room temperature for 15 min. Cells were then washed and grown in medium, with and without pharmacological agents, for 15 and 30 min at 37 °C to allow peptide internalization. After internalization, they were fixed with PBS-4% PFA and plasma membranes were stained with 2.5 μg/mL wheat germ agglutinin, Alexa Fluor 647 (Thermo Fisher Scientific) conjugate in PBS-1% BSA, incubated for 10 min at room temperature. Nuclei were stained with DAPI (0.5 μg/mL in PBS-1% BSA). Each step was followed by three washes in PBS.
# Peptide binding was analyzed by confocal laser microscope (Leica TCS SP5) with 501 λ ex and 523 λ em for Atto 488, 633 λ ex and 660–680 λ em for Atto 647 and 364 λ ex and 458 λ em for DAPI. Images were single Z-planes for all channels used. All images were processed and quantified using the Leica Application Suite X program (LAS X) of the confocal laser microscope (Leica TCS SP5). The experiment was repeated at least three times and at least three different fields were acquired for each sample.
# MDA-MB-231 cells [2] = experiment: NT4 binding to plasma membrane and internalization, confocal immunofluorescence; assay type: cell-based, human; settings: confocal microscopy
# Protocol: as §1
# Cells were incubated with 2 μM NT4-biotin and 0.5 μg/mL Streptavidin-Atto 488 in PBS-1% BSA at room temperature for 15 min, then washed and grown in medium for 5, 15 and 30 min at 37 °C to allow peptide internalization. They were then fixed with PBS-4% paraformaldehyde (PFA) and saturated with PBS-5% BSA 0.3%-Triton X-100. HS was stained using 1 µg/mL anti-heparan sulfate (10E4 epitope) (Amsbio, Abingdon, UK) in PBS-1% BSA for 1 h, followed by incubation with 1 μg/mL anti-mouse IgG Rhodamine Red-X (Thermo Fisher Scientific, Waltham, MA, USA). Nuclei were stained with DAPI (0.5 μg/mL in PBS-1% BSA). Each step was followed by three washes in PBS. Peptide binding was analyzed by confocal laser microscope (Leica TCS SP5) with 380 λ ex and 450–470 λ em, 501 λ ex and 523 λ em and 633 λ ex and 660–680 λ em for DAPI, Atto 488 and Atto 647, respectively. The experiment was repeated three times and three different fields were acquired for each sample.
# MDA-MB-231 cells [3] = experiment: 2D migration, in vitro wound-healing (scratch) assay; assay type: cell-based, human; settings: 10 μM NT4 in complete medium, p = 0.0428, n = 2
# Protocol: Cell migration was measured using an in vitro wound-healing assay. MDA-MB231 cells (5.25 × 10^4) were seeded on each side of a culture insert for live cell analysis (Ibidi, Munich, Germany). Inserts were placed in the wells of a 24-well plate and the cells were incubated at 37 °C and 5% CO2 to confluence. The inserts were removed with sterile tweezers to create a cell-free area of approximately 500 μm. The cells were treated with 10 μM NT4 peptide in complete medium and allowed to migrate in an appropriate incubator of a DMi8 (Leica Microsystems, Wetzlar, Germany) microscope. The same instrument was used to take pictures at time zero and every 5 min for 11 h.
# The percentage of void area with respect to time 0 was determined using Tscratch. The time-lapse image stacks were also analyzed using ImageJ and the plug-in Chemotaxis and Migration Tool.
# CDC42-GTP = experiment: G-LISA activation assay, CDC42; assay type: cell-based, human; settings: starved MDA-MB-231
# Protocol: Cells were seeded in six-well plates (5 × 10^5 cells per well) and maintained for 12 h in a CO2 incubator. To measure Rac-1, RhoA and CDC42 GTPases, they were treated with 10 µM NT4 in DMEM-0.1% BSA, serum-free, for 12 h at 37 °C and then incubated with 0.1 μg/mL hEGF (Cell Signaling) for 2 min for Rac-1 and CDC42 GTPases and for 5 min for RhoA GTPase. Cells were washed with cold PBS, lysed and processed for colorimetric G-LISA activation assays (Cytoskeleton, Denver, CO, USA), according to the manufacturer’s instructions. The activated forms of the G proteins were detected by incubation with specific primary antibody, followed by a secondary antibody conjugated with HRP and a detection reagent. The signal was read by measuring absorbance at 490 nm using a microplate reader. […]
# Rac1-GTP = experiment: G-LISA activation assay, Rac1; assay type: cell-based, human; settings: starved MDA-MB-231
# Protocol: (§2) Cells were seeded in six-well plates (5 × 10^5 cells per well) and maintained for 12 h in a CO2 incubator. To measure Rac-1, RhoA and CDC42 GTPases, they were treated with 10 µM NT4 in DMEM-0.1% BSA, serum-free, for 12 h at 37 °C and then incubated with 0.1 μg/mL hEGF (Cell Signaling) for 2 min for Rac-1 and CDC42 GTPases and for 5 min for RhoA GTPase. Cells were washed with cold PBS, lysed and processed for colorimetric G-LISA activation assays (Cytoskeleton, Denver, CO, USA), according to the manufacturer’s instructions. The activated forms of the G proteins were detected by incubation with specific primary antibody, followed by a secondary antibody conjugated with HRP and a detection reagent. The signal was read by measuring absorbance at 490 nm using a microplate reader. The experiment was repeated three times.
# Rac-1-GTP = experiment: Rac1 pulldown assay (GST-PAK1-PBD beads, immunoblot); assay type: cell-based, human; settings: MDA-MB-231, no EGF
# Protocol: Rac1 activity was measured by pulldown assay using the active Rac1 detection kit (Cell Signaling), according to the manufacturer’s instructions. Cells were seeded in six-well plates (5 × 10^5 cells per well) and maintained for 24 h in a CO2 incubator. Cells were washed with cold PBS and lysed. Protein lysates were centrifuged and the supernatant was collected in new tubes containing beads pre-coupled with GST–PAK1-PBD and incubated under rotation at 4 °C for 60 min. The beads were washed and the proteins bound to them were separated by SDS-PAGE. The amounts of active Rac1 were determined by immunoblot analysis. Signals were detected using a LAS4010 imaging system (GE Healthcare, Chicago, IL, USA).
# RhoA-GTP = experiment: G-LISA activation assay, RhoA; assay type: cell-based, human; settings: starved MDA-MB-231, n = 3
# Protocol: as §2
# heparan sulfate chains = settings: surface plasmon resonance; cited from earlier work
# MDA-MB231 cells = settings: flow cytometry; cited from earlier work
# Protocol: The peptide bound to the plasma membrane (Figure 1A), most was internalized in cells within 15–30 min (Figure 1B,C) and it was completely endocytosed within 1 h (Figure 1D). The antibody anti-HS clone 10E4 [20], the epitope of which includes an N-sulfated glucosamine r ...
# proteolytic enzymes = settings: imparted by branched structure; cited from earlier work
# From the text: NT4 is a tetrabranched peptide obtained by synthesizing four copies of the 13-amino-acid sequence on a branched core of lysines. […] The peptide has already been tested in animal models of cancer and has shown good specificity for tumor versus healthy cells. It also countered the invasive ...
compound,measurement,setting,value
O=C(N/N=C/c1ccc(O)c(O)c1)c1cc2ccccc2cc1O [dynasore],effect on NT4 internalization,"[1]; 80 μM dynasore, n = 6, p = 0.0043",no longer internalized NT4
(pyELYENKPRRPYIL)4K2K-beta-Ala [NT4],time within which most of the peptide was internalized in cells,"MDA-MB-231 cells [2]; 2 μM NT4-biotin + 0.5 μg/mL Streptavidin-Atto 488, 15 min RT in PBS-1% BSA, then medium at 37 °C",15 to 30 min
same,time within which the peptide was completely endocytosed,"MDA-MB-231 cells [2]; 2 μM NT4-biotin + Streptavidin-Atto 488, 37 °C",≤ 1 h
same,effect on MDA-MB-231 migration (gap closure in 8 h),MDA-MB-231 cells [3],slowed MDA-MB-231 migration
same,effect on CDC42 activation without EGF,"CDC42-GTP; 10 µM NT4 12 h, no EGF",no effect on CDC42 activation
same,effect on EGF-induced CDC42 activation,"CDC42-GTP; 10 µM NT4 12 h, then 0.1 μg/mL hEGF 2 min, n = 2",mitigates activation of CDC42 induced by the growth factor
same,effect on EGF-induced Rac1 activation,"Rac1-GTP; 10 µM NT4 12 h, then 0.1 μg/mL hEGF 2 min",not significantly changed
same,effect on basal levels of Rac-1-GTP,Rac-1-GTP,not affected
same,reduction of RhoA (RhoA-GTP),"RhoA-GTP; 10 µM NT4 12 h alone, without EGF",20%
same,reduction of RhoA (RhoA-GTP),"RhoA-GTP; EGF with NT4: 10 µM NT4 12 h, then 0.1 μg/mL hEGF 5 min",21%
same,binding to heparan sulfate chains,heparan sulfate chains,bind heparan sulfate chains
same,binding to MDA-MB231 cells,MDA-MB231 cells,bind to MDA-MB231 cells
same,stability against proteolytic enzymes,proteolytic enzymes,stability against proteolytic enzymes
CN(C)CCCN1c2ccccc2Sc2ccc(Cl)cc21 [chlorpromazine],reduction of NT4 internalization,"[1]; chlorpromazine 1 μg/mL, n = 3, p = 0.0279",27%
same,reduction of NT4 internalization,"[1]; chlorpromazine 10 μg/mL, n = 4, p = 0.0327",57%
"EGF: growth factor (hEGF, Cell Signaling) used to stimulate Rho GTPases",effect on CDC42-GTP,CDC42-GTP; 0.1 μg/mL hEGF 2 min,increased
same,effect on Rac1-GTP,Rac1-GTP; 0.1 μg/mL hEGF 2 min,transiently activated
same,reduction of RhoA (RhoA-GTP),RhoA-GTP; 0.1 μg/mL hEGF 5 min alone,26%
C[C@@H]1[C@H](O)[C@@H](C)/C=C/C=C/CC/C=C/C=C/C=C/C=C/C(O[C@H]2O[C@H](C)[C@@H](O)[C@H](N)[C@@H]2O)CC2O[C@](O)(CC(O)C(O)CCC(O)CC(O)CC(O)CC(=O)O[C@H]1C)CC(O)C2C(=O)O (some centres unmarked) [nystatin],inhibition of NT4 endocytosis,"[1]; 25 μg/mL nystatin, 15 min, 2 μM NT4-biotin, n = 9, p = 0.0345",60%
N=C(N)NC(=O)c1nc(Cl)c(N)nc1N [Amiloride],impairment of NT4 internalization,"[1]; 50 µM amiloride pre-treatment, p = 0.0461",more than 50%
